How the values were obtained:
Assay type in all cases: cell-based, human
[1] = test system: SK-OV-3 cells; assay: CCK-8 anti-proliferative assay, SK-OV-3; settings: Homo sapiens, SK-OV-3; Table 9; co-incubated 48 h; read-out: Anti-proliferative activity (IC50 ± standard deviation) SK-OV-3
Method: (§1) The obtained quinazolinyl-aryl urea derivatives were screened for compounds with optimal activity using the following method.
(§2) Experimental Procedure for Anti-Proliferative Activity Evaluation: The CCK-8 assay was employed. Cells in logarithmic growth phase were harvested, adjusted to appropriate density, and uniformly seeded into 96-well plates using a multichannel pipette (180 μL cell suspension containing complete medium per well, 5,000 cells/well). Blank control wells (containing basal medium, CCK-8 solution, and DMSO only) were set. Cells were incubated at 37° C. under 5% CO2. After 70% confluency was reached, test compounds (target compounds/positive controls) were added at final concentrations of 1, 2, 4, 6, 8, 12, 16, 24, and 30 μM (3 repeated wells per concentration). Compounds were pre-dissolved in DMSO, sterilized, and diluted with medium before adding 20 μL/well. After co-incubation for designated durations, 10 μL CCK-8 solution was added per well followed by 1-4 h incubation (different cells have different incubation times). […] Inhibition rates were calculated as: (ODcontrol−ODtreatment)/ODcontrol×100%. Median inhibitory concentrations (IC50 values) were derived using Origin v8.0 software.

[2] = test system: MG-63 cells; assay: CCK-8 anti-proliferative assay, MG-63; settings: Homo sapiens, MG-63; Table 7; co-incubated 48 h; read-out: Anti-proliferative activity (IC50 ± standard deviation) MG-63
Excerpt: (§3) The obtained quinazolinyl-aryl urea derivatives were screened for compounds with optimal activity using the following method. All cell lines employed in this experiment were of human origin, including: bladder cancer cells: J82, UM-UC-3, T24, 5637, pancreatic cancer cells: BxPC-3, PANC-1, osteosarcoma cells: 143B, MG-63, cervical cancer cells: HeLa, breast cancer cells: MCF-7, NSCLC cells: A549, hepatoblastoma cells: Hep G2, and ovarian cancer cells: SK-OV-3, as well as normal cell lines: immortalized ureteral epithelial cells (SV-HUC-1), embryonic lung fibroblasts (WI-38).
(§4) Experimental Procedure for Anti-Proliferative Activity Evaluation: The CCK-8 assay was employed. Cells in logarithmic growth phase were harvested, adjusted to appropriate density, and uniformly seeded into 96-well plates using a multichannel pipette (180 μL cell suspension containing complete medium per well, 5,000 cells/well). Blank control wells (containing basal medium, CCK-8 solution, and DMSO only) were set. Cells were incubated at 37° C. under 5% CO2. After 70% confluency was reached, test compounds (target compounds/positive controls) were added at final concentrations of 1, 2, 4, 6, 8, 12, 16, 24, and 30 μM (3 repeated wells per concentration). Compounds were pre-dissolved in DMSO, sterilized, and diluted with medium before adding 20 μL/well. After co-incubation for designated durations, 10 μL CCK-8 solution was added per well followed by 1-4 h incubation (different cells have different incubation times). The reaction was terminated, and OD (optical density) values at 450 nm were measured using a microplate reader. Inhibition rates were calculated as: (ODcontrol−ODtreatment)/ODcontrol×100%. Median inhibitory concentrations (IC50 values) were derived using Origin v8.0 software.

[3] = test system: 5637 cells; assay: CCK-8 anti-proliferative assay, 5637; settings: Homo sapiens; Table 6; co-incubated 48 h; read-out: Anti-proliferative activity (IC50 ± standard deviation) 5637
Method: as §1, §2

[4] = test system: embryonic lung fibroblasts (WI-38); assay: CCK-8 anti-proliferative assay, normal cells WI-38; settings: Homo sapiens, WI-38, Table 9, co-incubated 48 h, read-out: Anti-proliferative activity (IC50 ± standard deviation) WI-38
Excerpt: as §3, §4

[5] = test system: T24 cells; assay: CCK-8 anti-proliferative assay, T24; settings: Homo sapiens, T-24; Table 6; co-incubated 48 h; read-out: Anti-proliferative activity (IC50 ± standard deviation) T24
Excerpt: as §3, §4

[6] = test system: A549 cells; assay: CCK-8 anti-proliferative assay, A549; settings: Homo sapiens, A549; Table 8; co-incubated 48 h; read-out: Anti-proliferative activity (IC50 ± standard deviation) A549
Method: as §1, §2

[7] = test system: BxPC-3 cells; assay: CCK-8 anti-proliferative assay, BxPC-3; settings: Homo sapiens, BXPC-3; Table 7; co-incubated 48 h; read-out: Anti-proliferative activity (IC50 ± standard deviation) BxPC-3
Excerpt: as §3, §4

[8] = test system: Hep G2 cells; assay: CCK-8 anti-proliferative assay, Hep G2; settings: Homo sapiens, HepG2; Table 8; co-incubated 48 h; read-out: Anti-proliferative activity (IC50 ± standard deviation) Hep G2
Excerpt: as §3, §4

[9] = test system: MCF-7 cells; assay: CCK-8 anti-proliferative assay, MCF-7; settings: Homo sapiens, MCF7; Table 8; co-incubated 48 h; read-out: Anti-proliferative activity (IC50 ± standard deviation) MCF-7
Method: as §1, §2

[10] = test system: HeLa cells; assay: CCK-8 anti-proliferative assay, HeLa; settings: Homo sapiens, HeLa; Table 8; co-incubated 48 h; read-out: Anti-proliferative activity (IC50 ± standard deviation) HeLa
Method: as §1, §2

[11] = test system: J82 cells; assay: CCK-8 anti-proliferative assay, J82; settings: Homo sapiens, J82; Table 6; co-incubated 48 h; read-out: Anti-proliferative activity (IC50 ± standard deviation) J82
Method: as §1, §2

[12] = test system: UM-UC-3 cells; assay: CCK-8 anti-proliferative assay, UM-UC-3; settings: Homo sapiens, UMUC3; Table 6; co-incubated 48 h; read-out: Anti-proliferative activity (IC50 ± standard deviation) UM-UC-3
Method: as §1, §2

[13] = test system: PANC-1 cells; assay: CCK-8 anti-proliferative assay, PANC-1; settings: Homo sapiens, PANC-1; Table 7; co-incubated 48 h; read-out: Anti-proliferative activity (IC50 ± standard deviation) PANC-1
Excerpt: as §3, §4

[14] = test system: 143B cells; assay: CCK-8 anti-proliferative assay, 143B; settings: Homo sapiens, 143B; Table 7; co-incubated 48 h; read-out: Anti-proliferative activity (IC50 ± standard deviation) 143B
Excerpt: as §3, §4

[15] = test system: immortalized ureteral epithelial cells (SV-HUC-1); assay: CCK-8 anti-proliferative assay, normal cells SV-HUC-1; settings: Homo sapiens, SV-HUC1; Table 9; normal cells; co-incubated 48 h; read-out: Anti-proliferative activity (IC50 ± standard deviation) SV-HUC-1
Method: as §1, §2

Row | Structure (SMILES) | IC50 [1] [µM] | IC50 [2] [µM] | IC50 [3] [µM] | IC50 [4] [µM] | IC50 [5] [µM] | IC50 [6] [µM] | IC50 [7] [µM] | IC50 [8] [µM] | IC50 [9] [µM] | IC50 [10] [µM] | IC50 [11] [µM] | IC50 [12] [µM] | IC50 [13] [µM] | IC50 [14] [µM] | IC50 [15] [µM]
1 | COc1cc2ncnc(NCc3cccc(NC(=O)Nc4ccc(C(C)C)cc4)c3)c2cc1OCCCCCCN1CCN(CCN2CCOCC2)CC1 [Compound 8-1i, N-(3-(((7-methoxy-6-((6-(4-(2-morpholinoethyl)piperazin-1-yl)hexyl)oxy)quinazolin-4-yl)amino)methyl)phenyl)-N′-(4-isopropylphenyl)urea] | 7.68 ± 0.55 | 11.1 ± 0.95 | 10.3 ± 0.97 | 20.3 ± 1.63 | 16.3 ± 0.81 | 16 ± 0.64 | 13.3 ± 1.05 | 10.6 ± 0.89 | 11.5 ± 0.76 | 14.1 ± 0.89 | 22.4 ± 1.82 | 10 ± 0.52 | 14.4 ± 0.67 | 9.31 ± 0.97 | 19.3 ± 1.39
2 | COc1cc2ncnc(NCc3cccc(NC(=O)Nc4ccc(F)cc4)c3)c2cc1OCCCCCCN1CCN(CCN2CCOCC2)CC1 [Compound 8-1l, N-(3-(((7-methoxy-6-((6-(4-(2-morpholinoethyl)piperazin-1-yl)hexyl)oxy)quinazolin-4-yl)amino)methyl)phenyl)-N′-(4-fluorophenyl)urea] | 7.72 ± 0.59 | 7.03 ± 0.48 | 15.8 ± 0.95 | 22.8 ± 0.94 | 10.4 ± 0.92 | 21.4 ± 1.96 | 13 ± 0.97 | 7.29 ± 0.54 | 15.2 ± 0.93 | 21.3 ± 1.24 | 6.85 ± 0.57 | 16.8 ± 0.88 | > 30 | 9.03 ± 0.61 | 15.9 ± 0.86
3 | COc1cc2ncnc(NCc3cccc(NC(=O)Nc4ccccc4Cl)c3)c2cc1OCCCCCCN1CCN(CCN2CCOCC2)CC1 [Compound 8-1m, N-(3-(((7-methoxy-6-((6-(4-(2-morpholinoethyl)piperazin-1-yl)hexyl)oxy)quinazolin-4-yl)amino)methyl)phenyl)-N′-(2-chlorophenyl)urea] | 12.8 ± 0.42 | 5.69 ± 0.65 | 6.06 ± 0.58 | 14 ± 0.78 | 8.82 ± 0.49 | 15 ± 0.93 | 7.79 ± 0.44 | 7.83 ± 0.66 | 14.8 ± 0.86 | 13.8 ± 0.77 | 7.21 ± 0.66 | 11.1 ± 0.74 | 23.2 ± 2.03 | 5.62 ± 0.51 | 12 ± 0.57
4 | COc1cc2ncnc(NCc3cccc(NC(=O)Nc4ccc(Cl)c(Cl)c4)c3)c2cc1OCCCCCCN1CCN(CCN2CCOCC2)CC1 [Compound 8-1o, N-(3-(((7-methoxy-6-((6-(4-(2-morpholinoethyl)piperazin-1-yl)hexyl)oxy)quinazolin-4-yl)amino)methyl)phenyl)-N′-(3,4-dichlorophenyl)urea] | 9.34 ± 0.98 | 5.89 ± 0.47 | 5.34 ± 0.39 | 9.93 ± 0.53 | 7.31 ± 0.55 | 11.8 ± 0.63 | 7.73 ± 0.82 | 6.83 ± 0.52 | 9.33 ± 0.71 | 12.4 ± 0.89 | 6.88 ± 0.49 | 5.84 ± 0.53 | > 30 | 5.99 ± 0.43 | 10.7 ± 0.51

— patent US20260285816A1, “Piperazinyl-Modified Quinazolinyl-Aryl Urea Derivative, And Preparation Method And Use Thereof” (Guangxi Normal University, priority 2025, published 2026)
